These results are taken from patent publication US20230346793A1, “Compositions and Methods for Treating SARS-CoV-2” (priority 2020, published 2023).

The subject of test [1] is SARS-CoV-2. Kind of test: microbe, parasite or virus in culture. The settings on record: for EC50: Severe acute respiratory syndrome coronavirus 2, Vero C1008, in Primates, read-out: EC50 (effective concentration that gave half-maximal response), inhibition of SARS-CoV-2 infection; for inhibition of SARS-CoV-2 infection: VeroE6 plaque reduction assay, dose-dependent analysis. In kind it is cell-based. For orientation: Plaque reduction counts the foci of infection that form in a cell layer.

Test [2] has as its target calmodulin (Homo sapiens, UniProt P0DP23). The settings on record: Winkler 1987; Zimmer and Hofmann 1984; Reiermann and Rüegg 1986; cited from earlier work.

For `CC(C)COCC(CN(Cc1ccccc1)c1ccccc1)N1CCCC1` (centres unmarked) [BPD, Bepridil], in test [1], the EC50 is 7.13 µM and the “inhibition of SARS-CoV-2 infection” value is recorded as “strong inhibition of SARS-CoV-2 infection in a dose-dependent manner”. In addition, the inhibition of calmodulin entry in test [2] is “inhibit calmodulin”.

As to `CN1CCN(CCCN2c3ccccc3Sc3ccc(C(F)(F)F)cc32)CC1` [TFP, Trifluoperazine], in test [1], the EC50 worked out at 7.7 µM and the “inhibition of SARS-CoV-2 infection” value is “potently inhibited SARS-CoV-2 infection in a dose-dependent fashion”.
